Experiment: physchem
Conditions: not given
Description: The availability of the base electron pair is influenced by the steric environment presented by the groups (R′, R″ and CH2OH) bonded to the N and any electronic influence of those same groups.

| Compound | pKa |
| --- | --- |
| CC(C)(N)CO [AMP, 2-amino-2-methyl-1-propanol, reference compound] | 9.8 |
| CN(C)CCO [DMEOA, N,N-dimethylethanolamine, reference compound] | 9.2 |
| CCCNCCC [di-n-propyl amine] | 10.9 |
| CCCN(CO)CCC [methylol adduct of di-n-propyl amine] | 8.01 |
| CCN(CC)CO [methylol adduct of diethylamine] | 8.9 |
| CC(C)N(CO)C(C)C [methylol adduct of diisopropylamine] | 9.0 |
| OCN1CCCCC1 [methylol adduct of piperidine] | 9.2 |
| OCN1CCCC1 [methylol adduct of pyrrolidine] | 8.9 |
| C1CCNC1 [pyrrolidine] | 10.6 |

Experiment: physchem
Assay type: physicochemical
Conditions: pH 8
Description: One of ordinary skill will recognize that log P is a guideline tool for assessing amine candidates, since actual migration to the clear coat layer or retention within the aqueous 1K basecoat layer will be dependent upon the nature of the solvent base of the clear coat and other factors including the influence of other additives commonly present in the composition of both layers.
In one aspect of the first embodiment, the secondary amine may be a dialkyl amine.

| logP | Compound |
| --- | --- |
| ~2.8 | CCCCNCCCC [di-n-butyl amine] |
| 0.93 | CCNC(C)C [ethyl isopropyl amine] |

| Compound | logP |
| --- | --- |
| CCCNCCC [di-n-propyl amine] | ~1.6 |
